Results as given in patent US5656630A, “Method of combating fungus” (American Cyanamid Company, priority 1993, dated 1997).
In brackets after ≈: the same amount, converted by molar mass. Read-outs that look alike come from different tables or passages of the source.

Legend:
Phytophthora infestans [1] = type: in vivo, Phytophthora infestans (on tomato plants cv Prof. Rudloff); conditions: soil drench 2 days before infection, tomato
Water solubility = type: physicochemical
Phytophthora infestans [2] = conditions: sunlight excluded; only the Z-isomer; reported in Brighton Crop Protection Conference, 1988, 17-24; cited from earlier work
tomato plants = conditions: in vivo
[3] = 6.25 ppm active ingredient (0.11 kg/ha)
[4] = 12.5 ppm active ingredient (0.2 kg/ha)
[5] = 25 ppm active ingredient (0.44 kg/ha)
[6] = 50 ppm active ingredient (0.88 kg/ha)
[7] = 100 ppm active ingredient (1.76 kg/ha)

Structure (SMILES) | Activity in % (ABBOTT formula, diseased leaf area) (Phytophthora infestans [1]; [3]) | Activity in % (ABBOTT formula, diseased leaf area) (Phytophthora infestans [1]; [4]) | Activity in % (ABBOTT formula, diseased leaf area) (Phytophthora infestans [1]; [5]) | Activity in % (ABBOTT formula, diseased leaf area) (Phytophthora infestans [1]; [6]) | Activity in % (ABBOTT formula, diseased leaf area) (Phytophthora infestans [1]; [7]) | solubility (Water solubility) | fungitoxicity in vitro (Phytophthora infestans [2]) | initial concentrations in the leaves, Z-isomer relative to E-isomer (tomato plants)
COc1ccc(/C(=C/C(=O)N2CCOCC2)c2ccc(Cl)cc2)cc1OC [E-isomer] | 16% | 47% | 71% | 94% | 97% | 30 µg/mL (≈ 77.3 µM) | – | –
COc1ccc(/C(=C\C(=O)N2CCOCC2)c2ccc(Cl)cc2)cc1OC [Z-isomer, Z-isomer of 4-[3-(4-chlorophenyl)-3-(3,4-dimethoxyphenyl)acryloyl]morpholine] | 100% | 100% | 100% | 100% | 100% | 7 µg/mL (≈ 18 µM) | fungitoxic | about 5 times higher
COc1ccc(C(=CC(=O)N2CCOCC2)c2ccc(Cl)cc2)cc1OC [E/Z 50:50, 4-[3-(4-chlorophenyl)-3-(3,4-dimethoxyphenyl)-acryloyl]morpholine] | 91% | 98% | 100% | 100% | 100% | – | – | –
